Measurements from publication PMC12818446 (ACS chemical biology, 2025).
Converted amounts (≈) assume the structure as drawn. “And” between values parts separate entries of the source, which are not always exact repeats. Equal entries are not always repeated. Where two headings read alike, the source gives them in different places.

What was measured:
[1] = tested on: E. coli ATCC25922; assay: MIC, visible growth in 96-well plates; type: cell-based, Escherichia coli
[2] = tested on: E. coli ATCC25922; assay: Checkerboard MIC assay and FIC index; type: cell-based, Escherichia coli; details: for MIC: Escherichia coli
[3] = target: T1, mtLeuRS (Mycobacterium tuberculosis, UniProt P9WFV1); assay: biochemical; details: IC50, 1 h preincubation, 1 h preincubation with enzyme and mttRNA^Leu
[4] = target: T2, ecLeuRS (Escherichia coli, UniProt P07813); assay: LeuRS aminoacylation-activity assay; type: biochemical; details: IC50, 1 h preincubation, 1 h preincubation with enzyme and ectRNA^Leu
[5] = target: T3, ecLeuRS D342E (Escherichia coli, UniProt P07813, D342E); assay: biochemical; type: biochemical
[6] = target: T1, mtLeuRS; type: binding
[7] = target: T2, ecLeuRS; assay: SPR single-cycle kinetics, BAP-ecLeuRS in the presence of AMP; type: binding; details: for Kd/IC50: ratio of SPR Kd (AMP) and IC50 after 1 h preincubation; for kon: read-out: SPR kon
[8] = target: T3, ecLeuRS D342E; assay: biochemical; type: binding
[9] = tested on: M. tuberculosis H37Rv; assay: MIC, microplate Alamar blue assay; type: cell-based; details: Mycobacterium tuberculosis
[10] = tested on: M. tuberculosis H37Rv_LuxABCDE; assay: Post-antibiotic effect, autobioluminescent strain; type: cell-based, Mycobacterium tuberculosis
[11] = tested on: E. coli mutant strains (ecLeuRS D342E, G333D, D345N, V335D); assay: microbe, parasite or virus in culture; type: cell-based, Escherichia coli
[12] = tested on: E. coli ΔtolC and ΔacrAB; type: cell-based, Escherichia coli
[13] = tested on: E. coli ATCC25922; assay: Time-kill assay; type: cell-based, Escherichia coli; details: combination of ganfeborole and Nva, M9 medium
[14] = tested on: human cytoplasmic LeuRS; details: read-out: reported IC50; cited from earlier work
[15] = tested on: human mitochondrial LeuRS; details: read-out: reported IC50; cited from earlier work
[16] = target: T1, mtLeuRS; details: mtLeuRS in the presence of AMP; cited from earlier work
[17] = target: T2, ecLeuRS; details: cited from earlier work
[18] = tested on: M. tuberculosis; details: cited from earlier work
[19] = 1xMIC exposure for 2.5 h, 10,000-fold dilution
[20] = 10xMIC exposure for 2.5 h, 10,000-fold dilution
[21] = 30xMIC exposure for 2.5 h, 10,000-fold dilution
[22] = 50xMIC exposure for 2.5 h, 10,000-fold dilution

T3 sequence (P07813 whole entry D342E): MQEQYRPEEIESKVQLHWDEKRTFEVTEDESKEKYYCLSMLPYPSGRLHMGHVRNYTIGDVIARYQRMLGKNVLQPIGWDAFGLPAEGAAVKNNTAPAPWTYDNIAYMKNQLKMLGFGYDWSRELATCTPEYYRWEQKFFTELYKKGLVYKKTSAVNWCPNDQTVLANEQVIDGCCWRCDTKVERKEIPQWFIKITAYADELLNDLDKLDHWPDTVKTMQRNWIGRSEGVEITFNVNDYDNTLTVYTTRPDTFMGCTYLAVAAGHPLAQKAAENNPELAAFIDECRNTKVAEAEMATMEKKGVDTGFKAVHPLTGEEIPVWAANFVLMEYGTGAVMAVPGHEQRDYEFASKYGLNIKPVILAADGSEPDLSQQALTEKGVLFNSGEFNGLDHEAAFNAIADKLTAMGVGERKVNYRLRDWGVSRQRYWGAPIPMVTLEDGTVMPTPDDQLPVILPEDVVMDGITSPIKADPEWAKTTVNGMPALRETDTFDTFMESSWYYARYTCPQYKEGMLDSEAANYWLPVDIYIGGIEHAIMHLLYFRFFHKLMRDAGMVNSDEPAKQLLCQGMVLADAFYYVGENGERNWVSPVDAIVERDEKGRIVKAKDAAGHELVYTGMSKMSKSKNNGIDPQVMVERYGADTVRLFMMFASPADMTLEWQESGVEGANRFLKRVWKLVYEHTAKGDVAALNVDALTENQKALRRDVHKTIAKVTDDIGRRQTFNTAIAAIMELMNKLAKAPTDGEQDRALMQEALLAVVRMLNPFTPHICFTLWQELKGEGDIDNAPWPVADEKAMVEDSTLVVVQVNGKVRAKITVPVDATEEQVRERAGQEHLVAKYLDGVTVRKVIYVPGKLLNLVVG
T1 sequence (P9WFV1 whole entry): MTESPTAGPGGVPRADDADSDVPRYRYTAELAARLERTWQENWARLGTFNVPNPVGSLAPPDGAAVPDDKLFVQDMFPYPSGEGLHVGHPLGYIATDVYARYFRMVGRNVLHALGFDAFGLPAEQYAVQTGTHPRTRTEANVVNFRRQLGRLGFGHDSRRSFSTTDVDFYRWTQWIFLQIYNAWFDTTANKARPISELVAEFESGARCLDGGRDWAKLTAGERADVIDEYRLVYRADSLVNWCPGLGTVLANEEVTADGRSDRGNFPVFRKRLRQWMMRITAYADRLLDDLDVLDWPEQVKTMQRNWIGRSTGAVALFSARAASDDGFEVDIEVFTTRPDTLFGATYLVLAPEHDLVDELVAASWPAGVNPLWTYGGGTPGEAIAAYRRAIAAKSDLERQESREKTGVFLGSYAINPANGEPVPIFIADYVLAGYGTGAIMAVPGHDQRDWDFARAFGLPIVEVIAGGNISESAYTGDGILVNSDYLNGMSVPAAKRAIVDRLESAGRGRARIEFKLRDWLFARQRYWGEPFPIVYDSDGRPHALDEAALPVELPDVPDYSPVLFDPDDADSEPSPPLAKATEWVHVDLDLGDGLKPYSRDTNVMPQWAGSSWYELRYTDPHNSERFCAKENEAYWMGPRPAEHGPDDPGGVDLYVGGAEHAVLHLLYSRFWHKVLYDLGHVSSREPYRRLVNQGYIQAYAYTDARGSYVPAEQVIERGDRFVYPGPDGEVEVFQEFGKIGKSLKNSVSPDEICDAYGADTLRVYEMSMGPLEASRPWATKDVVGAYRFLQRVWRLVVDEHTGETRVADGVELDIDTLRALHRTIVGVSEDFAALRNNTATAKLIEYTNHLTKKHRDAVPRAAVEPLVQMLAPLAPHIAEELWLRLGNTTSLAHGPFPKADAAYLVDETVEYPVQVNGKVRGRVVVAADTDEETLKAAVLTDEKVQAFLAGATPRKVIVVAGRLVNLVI
T2 sequence (P07813 whole entry): as the sequence (P07813 whole entry D342E) above, with E342D counted along it

With CCC[C@H](N)C(=O)O [Nva, L-Norvaline] the “effect on bacterial growth, no effect up to” value ([1]; Nva alone, E. coli) was over 200 µM, the MIC ([2]; ATCC25922, read-out: MIC of Nva with 6.4 μM ganfeborole, E. coli ATCC25922, in the presence of 3.1 μM Leu) was 25 µM and the MIC ([2]; ATCC25922, read-out: MIC of Nva with 6.4 μM ganfeborole, E. coli ATCC25922, with 200 μM Leu) was 1600 µM.

In the case of NC[C@H]1OB(O)c2c(OCCO)ccc(Cl)c21 [Ganfeborole, (S)-3-(Aminomethyl)-4-chloro-7-(2-hydroxyethoxy)benzo[c][1,2]oxaborol-1(3H)-ol], the IC50 [3] is reported as 1 ± 0.1 nM, the IC50 [4] is reported as 2 ± 0.1 nM and the “fold increase in IC50, D342E mutant versus ecLeuRS” value [5] is reported as 10 fold. For the same compound, the IC50 ([5]; IC50, 2 min preincubation) was 278 ± 19 nM, the IC50 ([5]; IC50, 20 min preincubation) was 60 ± 4 nM and the IC50 ([5]; IC50, 1 h preincubation) was 20 ± 2 nM. The “fold more potent binding than compound 1” value ([6]; SPR with AMP) was ~ 50 fold, the Kd/IC50 ([6]; ratio of SPR Kd (AMP) and IC50 after 1 h preincubation) was 7 and the Kd [7] was 17 ± 1 nM. The “fold more potent binding than compound 1” value ([7]; ecLeuRS, SPR with AMP) was 30-40 fold, the “SPR tR (residence time)” value ([7]; ecLeuRS, in the presence of AMP) was 104 ± 5 min and the Kd/IC50 ([7]; ecLeuRS) was 8.5. For the same compound, the koff ([7]; read-out: SPR koff) was 0.00016 ± 1e-05 s⁻¹, the kon [7] was 9500 ± 500 M⁻¹ s⁻¹ and the residence time ([7]; read-out: SPR tR (residence time), ecLeuRS, in the presence of AMP) was 100 min. The Kd [8] was 1700 ± 197 nM, the Kd/IC50 [8] was 85 and the koff ([8]; read-out: SPR koff) was 0.07 ± 0.0071 s⁻¹. The kon ([8]; read-out: SPR kon) was 42000 ± 1000 M⁻¹ s⁻¹, the residence time ([8]; read-out: SPR tR (residence time)) was 0.24 ± 0.02 min and the MIC [9] was 0.058 µM (≈ 0.0149 µg/mL). For the same compound, the MIC ([1]; E. coli wild-type, Table 4 (CAMH medium)) was over 1000 µM, the MIC ([1]; Escherichia coli, ATCC25922) was over 1000 µM and the “antibacterial activity towards E. coli, no activity up to” value ([1]; wild-type E. coli) was over 1 mM. The “PAE 1xMIC” value [10, 19] was 0 h, the “PAE 10xMIC” value [10, 20] was 32 ± 2 h and the “PAE 30xMIC” value [10, 21] was 39 ± 2 h. For the same compound, the “PAE 50xMIC” value [10, 22] was 77 ± 4 h, the “PAE 50xMIC” value ([10]; 50xMIC exposure for 2.5 h, 10,000-fold dilution, listed as ganfeborole) was 77 h and the MIC [11] was 1.56 µM (≈ 0.402 µg/mL). For the same compound, the MIC ([11]; Escherichia coli, read-out: MIC, four mutant strains together) was 1.56 to 6.25 µM (≈ 0.402 to 1.61 µg/mL), the “MIC / antibacterial activity in efflux pump mutant strains” value [12] was “no antibacterial activity” and the “antibacterial activity, no activity up to” value [12] was over 1 mM. The “fold decrease in the MIC of ganfeborole on addition of Nva” value ([2]; E. coli, 12.5 μM Nva) was over 1000 fold, the MIC ([2]; ATCC25922, read-out: MIC of ganfeborole + 12.5 μM Nva, E. coli ATCC25922, M9 media, + 12.5 μM Nva) was 0.4 µM and the MIC ([2]; ATCC25922, read-out: MIC of ganfeborole + 100 μM Nva + 100 μM Leu, E. coli ATCC25922, M9 media, + 100 μM Nva + 100 μM Leu) was 1600 µM. For the same compound, the FICI ([2]; checkerboard of Nva and ganfeborole, E. coli ATCC25922) was under 0.5, the time-kill result [13] was “cidality” and the IC50 [14] was 132000 nM. The IC50 [15] was over 300000 nM and the Kd [16] was 10.4 nM.

For NCC1OB(O)c2c(OCCCO)cccc21 (centres unmarked) [AN3213], the reported residence time ([17]; ecLeuRS and tRNA^Leu) is listed as 23 h.

For NNC(=O)c1ccncc1 [Isoniazid], the MIC [9] was 0.23 µM (≈ 0.0315 µg/mL), the “PAE at any concentration” value ([10]; 1x to 50xMIC) was “no detectable PAE” and the “PAE 1xMIC” value [10, 19] was 0 h. The “PAE 10xMIC” value [10, 20] was 0 h, the “PAE 30xMIC” value [10, 21] was 0 h and the “PAE 50xMIC” value [10, 22] was 0 h.

In the case of CO[C@H]1/C=C/O[C@@]2(C)Oc3c(C)c(O)c4c(O)c(c(/C=N/N5CCN(C)CC5)c(O)c4c3C2=O)NC(=O)/C(C)=C\C=C\[C@H](C)[C@H](O)[C@@H](C)[C@@H](O)[C@@H](C)[C@H](OC(C)=O)[C@@H]1C [Rifampicin], the MIC [9] is reported as 0.04 µM (≈ 0.0329 µg/mL), the “PAE 1xMIC” value [10] is reported as 22 ± 1 h and the “PAE 10xMIC” value [10] is reported as 30 ± 2 h. For the same compound, the “PAE 30xMIC” value [10] was 36 ± 3 h, the “PAE 50xMIC” value [10] was 72 h and 72 ± 4 h and the PAE [18] was 68 to 77 h.

Compound NC[C@H]1OB(O)c2c(OCCCO)cccc21 [Epetraborole] has a Kd [7] of 1100 ± 71 nM, a Kd/IC50 ([7]; ecLeuRS) of 367 and a kon [7] of 62000 ± 33000 M⁻¹ s⁻¹. For the same compound, the MIC ([1]; Escherichia coli, ATCC25922) was 1.56 µM (≈ 0.37 µg/mL) and the residence time ([17]; ecLeuRS with tRNA^Leu) was 23 h.
